Patent US6423541B1, “Process for in vitro selection of high methol producing genotypes” (Council of Scientific&Industrial Reaearch, priority 2000, dated 2002)

Tests used:
Assay in all cases: Survival of in vitro raised shoots on menthol containing MS basal medium
Format in all cases: cell-based
[1] = tested on: regenerated shoots of Mentha arvensis variety MAS-1
Description: (§1) The plant varieties analysed were Himalaya, Shivalik, Gomti, MAS-1, Kosi, Kalka of Mentha arvensis L. (2n=96). The suckers of these plant varieties were obtained from CIMAP's national gene bank for medicinal and aromatic plants for planting. The explant materials were collected from the field grown plants and surface sterilized by washing sequentially with 2% detergent, distilled water containing a few drops of Savlon (Johnson and Johnson, India), 0.1% acidified mercuric chloride and autoclaved distilled water before inoculation. About 1 cm long internodal pieces were inoculated in the MS medium (Murasighe and Skoog, 1962) containing vitamins, 100 mg l^−1 myo-inositol 3% wv^−1 sucrose, 1.5% wv^−1 agar (Difco), 0.5 .μg ml^−1 of an auxin, (NAA, 1-napthalene acetic acid) and 5 μg ml^−1 of a cytokinin (BAP, benzyl aminopurine) (Shasany et al, 1998). The cultures were grown at 25±2° C. and 400 to 600 lux light intensity with 16 h photoperiod. The regenerated shoots were separated 12 weeks after the explant inoculation for rooting and/or testing menthol tolerance.
(§2) The regenerated shoots (3-4 cm long, containing the apical bud and 2-3 nodes) separated after 12 weeks, were inoculated into MS basal medium with or without menthol (0 to 100 μg ml^−1). Concentration of menthol in each treatment was stepped up by 10 μg in a sequential manner. On each kind of these media, 5 independently regenerated shoots were inoculated per flask; 4 flasks were inoculated per replication and each treatment was replicated 5 times, making the number of flasks to 20 and number of explants to 100 for each concentration of menthol. The experiment was conducted in the completely randomized design (CRD) fashion. Cultures were incubated and maintained at 25±2° C. and 400-600 lux light intensity with 16-hour photoperiod. The wilting response and lethality in explants was recorded every 24 hours over a period of one week.

[2] = tested on: regenerated shoots of Mentha arvensis variety Kosi
Description: as §1, §2

[3] = tested on: regenerated shoots of Mentha arvensis variety Himalaya
Description: as §1, §2

[4] = 100-ppm menthol, twenty-four hours after incubation
[5] = menthol 10 μg ml^−1, 20 shoots tested per replication
[6] = menthol 20 μg ml^−1, 20 shoots tested per replication
[7] = menthol 30 μg ml^−1, 20 shoots tested per replication
[8] = menthol 40 μg ml^−1, 20 shoots tested per replication
[9] = menthol 50 μg ml^−1, 20 shoots tested per replication
[10] = menthol 60 μg ml^−1, 20 shoots tested per replication
[11] = menthol 70 μg ml^−1, 20 shoots tested per replication
[12] = menthol 80 μg ml^−1, 20 shoots tested per replication
[13] = menthol 90 μg ml^−1, 20 shoots tested per replication
[14] = menthol 100 μg ml^−1, 20 shoots tested per replication

CC1CCC(C(C)C)C(O)C1 (stereo not shown) [menthol]
survival ([1]; 80 ppm menthol, after 7 days of incubation): 2%
lethality [1, 4]: 98%
Survival after 7 days Number ([1]; menthol 10 μg ml^−1): 20.0 ± 0.00
Survival after 24 hours Number [1, 5]: 20.0 ± 0.00
Survival after 7 days Number ([1]; menthol 20 μg ml^−1): 20.0 ± 0.00
Survival after 24 hours Number [1, 6]: 20.0 ± 0.00
Survival after 7 days Number ([1]; menthol 30 μg ml^−1): 20.0 ± 0.00
Survival after 24 hours Number [1, 7]: 20.0 ± 0.00
Survival after 7 days Number ([1]; menthol 40 μg ml^−1): 18.0 ± 0.57
Survival after 24 hours Number [1, 8]: 20.0 ± 0.00
Survival after 7 days Number ([1]; menthol 50 μg ml^−1): 13.4 ± 0.66
Survival after 24 hours Number [1, 9]: 19.0 ± 0.57
Survival after 7 days Number ([1]; menthol 60 μg ml^−1): 10.0 ± 0.91
Survival after 24 hours Number [1, 10]: 16.0 ± 0.57
Survival after 7 days Number ([1]; menthol 70 μg ml^−1): 3.0 ± 0.58
Survival after 24 hours Number [1, 11]: 10.0 ± 0.82
Survival after 7 days Number ([1]; menthol 80 μg ml^−1): 0.4 ± 0.32
Survival after 24 hours Number [1, 12]: 5.0 ± 0.41
Survival after 7 days Number ([1]; menthol 90 μg ml^−1): 0.0 ± 0.00
Survival after 24 hours Number [1, 13]: 3.0 ± 0.32
Survival after 7 days Number ([1]; menthol 100 μg ml^−1): 0.0 ± 0.00
Survival after 24 hours Number [1, 14]: 0.4 ± 0.32
lethality [2, 4]: 99%
Survival after 7 days Number ([2]; menthol 10 μg ml^−1): 20.0 ± 0.00
Survival after 24 hours Number [2, 5]: 20.0 ± 0.00
Survival after 7 days Number ([2]; menthol 20 μg ml^−1): 20.0 ± 0.00
Survival after 24 hours Number [2, 6]: 20.0 ± 0.00
Survival after 7 days Number ([2]; menthol 30 μg ml^−1): 20.0 ± 0.00
Survival after 24 hours Number [2, 7]: 20.0 ± 0.00
Survival after 7 days Number ([2]; menthol 40 μg ml^−1): 18.0 ± 0.41
Survival after 24 hours Number [2, 8]: 20.0 ± 0.00
Survival after 7 days Number ([2]; menthol 50 μg ml^−1): 10.0 ± 0.52
Survival after 24 hours Number [2, 9]: 17.0 ± 0.41
Survival after 7 days Number ([2]; menthol 60 μg ml^−1): 8.0 ± 0.82
Survival after 24 hours Number [2, 10]: 15.0 ± 0.91
Survival after 7 days Number ([2]; menthol 70 μg ml^−1): 1.0 ± 0.40
Survival after 24 hours Number [2, 11]: 7.0 ± 0.82
Survival after 7 days Number ([2]; menthol 80 μg ml^−1): 0.0 ± 0.00
Survival after 24 hours Number [2, 12]: 3.0 ± 0.41
Survival after 7 days Number ([2]; menthol 90 μg ml^−1): 0.0 ± 0.00
Survival after 24 hours Number [2, 13]: 2.0 ± 0.32
Survival after 7 days Number ([2]; menthol 100 μg ml^−1): 0.0 ± 0.00
Survival after 24 hours Number [2, 14]: 0.2 ± 0.32
lethality [3, 4]: 100%
Survival after 7 days Number ([3]; menthol 10 μg ml^−1): 20.0 ± 0.00
Survival after 24 hours Number [3, 5]: 20.0 ± 0.00
Survival after 7 days Number ([3]; menthol 20 μg ml^−1): 20.0 ± 0.00
Survival after 24 hours Number [3, 6]: 20.0 ± 0.00
Survival after 7 days Number ([3]; menthol 30 μg ml^−1): 20.0 ± 0.00
Survival after 24 hours Number [3, 7]: 20.0 ± 0.00
Survival after 7 days Number ([3]; menthol 40 μg ml^−1): 17.6 ± 0.66
Survival after 24 hours Number [3, 8]: 20.0 ± 0.00
Survival after 7 days Number ([3]; menthol 50 μg ml^−1): 9.0 ± 0.41
Survival after 24 hours Number [3, 9]: 17.0 ± 0.91
Survival after 7 days Number ([3]; menthol 60 μg ml^−1): 2.0 ± 0.41
Survival after 24 hours Number [3, 10]: 14.0 ± 0.91
Survival after 7 days Number ([3]; menthol 70 μg ml^−1): 0.2 ± 0.26
Survival after 24 hours Number [3, 11]: 9.0 ± 0.91
Survival after 7 days Number ([3]; menthol 80 μg ml^−1): 0.0 ± 0.00
Survival after 24 hours Number [3, 12]: 4.0 ± 0.58
Survival after 7 days Number ([3]; menthol 90 μg ml^−1): 0.0 ± 0.00
Survival after 24 hours Number [3, 13]: 2.0 ± 0.40
Survival after 7 days Number ([3]; menthol 100 μg ml^−1): 0.0 ± 0.00
Survival after 24 hours Number [3, 14]: 0.0 ± 0.00
